Experiments:
[1] = system: corneal epithelium; test: Action on corneal epithelium migration (in vitro), corneal organ culture system; format: cell-based, Japanese white rabbit; conditions: rabbit corneal blocks incubated 20 hours in Medium-199 with test compound; FIG. 1, 51.2-512.3 nM; vs control
Description: (1) Action on Corneal Epithelium Migration (In Vitro)
Using the cornea of male Japanese white rabbits, the effects on corneal epithelium migration were examined using the migrating length of the corneal epithelium in a corneal organ culture system as an index in accordance with the method of Nishida et al. (J. Cell. Biol., 97, pp. 1653-1657 (1983)).
Corneal blocks (three per group) were cut out from rabbit corneal tissue. These corneal blocks were incubated for 20 hours under the conditions of 37° C. and 5% CO2 in a culture medium (Medium-199) containing the test compound. After incubation, the corneal blocks were fixed in a mixed solution of ethanol and glacial acetic acid (volume ratio of 95:5), embedded in paraffin, and prepared as sections. After deparaffination, the sections were stained with hematoxylin-eosin and the migrating length of the epithelial cell layer was measured under a microscope.

[2] = system: rabbit corneal wound model; test: Corneal wound healing promotion action 1 (in vivo), approx. 6 mm corneal epithelial abrasion; parameters: species or system Japanese white rabbit
Description: (2) Corneal Wound Healing Promotion Action 1 (In Vivo)
Using a male Japanese white rabbit, a wound of approximately 6 mm in diameter was produced in the cornea by inducing corneal epithelial abrasion in accordance with the method of Cintron et al. (Ophthalmic Res., 11, pp. 90-96 (1979)). The wound area was measured using the fluorescein-stained area as an index. The effects of the test compound on corneal wound healing were examined.
The eye drops containing the respective concentrations of the test compound were instilled (30 μl at a time) at 0, 3, 6, 9, 12, 18, 24, 27, 30, 33, 36, 42, and 48 hours after inducing corneal epithelial abrasion. In measuring the wound area, fluorescein staining was carried out and a photograph of the cornea was measured. The fluorescein-stained area of the photographed cornea was computed using an image analysis processing system.
In Tables 1 and 2, the respective values indicate the mean value±standard deviation (n=6). Statistical analysis was carried out using Dunnett's multiple comparison with respect to PBS with the area of the corneal wound portion immediately after (0 hours after) corneal epithelial abrasion being set to 100% (*p<0.05, ** p<0.01; vs. control).

[3] = system: rabbit corneal wound model; test: Corneal wound healing promotion action 2 (in vivo), approx. 8 mm corneal epithelial abrasion; parameters: species or system Japanese white rabbit
Description: (3) Corneal Wound Healing Promotion Action 2 (In Vivo)
Using the same method as (2) above, corneal epithelial abrasion was induced in a Japanese white rabbit to produce a wound of approximately 8 mm in diameter in the cornea. The wound area was measured using the fluorescein-stained area as an index to examine the effects on corneal wound healing.
The eye drops containing the respective concentrations of the test compound were instilled (25 μl at a time) at 0, 6, 12, 18, 24, 30, 36, 42, 48, and 54 hours after induction corneal epithelial abrasion. In measuring the wound area, fluorescein staining was carried out and a photograph of the cornea was measured. The fluorescein-stained area of the photographed cornea was computed using an image analysis processing system.
In Tables 3 and 4, the respective values indicate the mean value±standard deviation (n=6). Statistical analysis was carried out using Dunnett's multiple comparison with respect to physiological saline with the area of the corneal wound portion immediately after (0 hours after) corneal epithelial abrasion being set to 100% (*p<0.05, ** p<0.01; vs. control).

## Ac-Pro-His-Ser-Arg-Asn-NH2 (Ac-PHSRN-NH2) [PHSRN (SEQ ID NO: 1)]
[1]
  migration of corneal epithelium (migrating length of epithelial cell layer): significant promotion
[2]; 2 μM eye drop, 0 hr (baseline)
  Healing ratio (%): 0%
[2]; 2 μM eye drop, 6 hr
  Healing ratio (%): 9.66 ± 2.21%
[2]; 2 μM eye drop, 12 hr
  Healing ratio (%): 26.71 ± 2.62%
[2]; 2 μM eye drop, 24 hr
  Healing ratio (%): 61.91 ± 3.08%
[2]; 2 μM eye drop, 36 hr
  Healing ratio (%): 88.08 ± 4.03%
[2]; 2 μM eye drop, 48 hr
  Healing ratio (%): 99.14 ± 1.90%
[2]; 20 μM eye drop, 0 hr (baseline)
  Healing ratio (%): 0%
[2]; 20 μM eye drop, 6 hr
  Healing ratio (%): 10.73 ± 3.21%
[2]; 20 μM eye drop, 12 hr
  Healing ratio (%): 28.01 ± 1.92%
[2]; 20 μM eye drop, 24 hr
  Healing ratio (%): 64.07 ± 3.98%
[2]; 20 μM eye drop, 36 hr
  Healing ratio (%): 89.09 ± 6.42%
[2]; 20 μM eye drop, 48 hr
  Healing ratio (%): 99.15 ± 1.52%
[2]; 200 μM eye drop, 0 hr (baseline)
  Healing ratio (%): 0%
[2]; 200 μM eye drop, 6 hr
  Healing ratio (%): 11.06 ± 3.50%
[2]; 200 μM eye drop, 12 hr
  Healing ratio (%): 28.69 ± 4.10%
[2]; 200 μM eye drop, 24 hr
  Healing ratio (%): 67.70 ± 5.37%
[2]; 200 μM eye drop, 36 hr
  Healing ratio (%): 94.97 ± 4.63%
[2]; 200 μM eye drop, 48 hr
  Healing ratio (%): 100.00 ± 0.00%
[2]; 2000 μM eye drop, 0 hr (baseline)
  Healing ratio (%): 0%
[2]; 2000 μM eye drop, 6 hr
  Healing ratio (%): 11.15 ± 1.25%
[2]; 2000 μM eye drop, 12 hr
  Healing ratio (%): 28.99 ± 2.65%
[2]; 2000 μM eye drop, 24 hr
  Healing ratio (%): 69.49 ± 3.17%
[2]; 2000 μM eye drop, 36 hr
  Healing ratio (%): 95.39 ± 3.06%
[2]; 2000 μM eye drop, 48 hr
  Healing ratio (%): 100.00 ± 0.00%
[2]; instillation of eye drops, 6 mm wound, vs PBS
  promotion of wound healing: significant promotion of wound healing
[3]; 0.04% eye drop, 0 hr (baseline)
  Healing ratio (%): 0%
[3]; 0.04% eye drop, 12 hr
  Healing ratio (%): 13.57 ± 3.74%
[3]; 0.04% eye drop, 18 hr
  Healing ratio (%): 29.45 ± 3.29%
[3]; 0.04% eye drop, 24 hr
  Healing ratio (%): 58.71 ± 6.32%
[3]; 0.04% eye drop, 30 hr
  Healing ratio (%): 58.71 ± 6.32%
[3]; 0.04% eye drop, 36 hr
  Healing ratio (%): 70.29 ± 8.38%
[3]; 0.04% eye drop, 48 hr
  Healing ratio (%): 88.27 ± 8.74%
[3]; 0.04% eye drop, 54 hr
  Healing ratio (%): 94.24 ± 6.62%
[3]; 0.04% eye drop, 72 hr
  Healing ratio (%): 98.93 ± 2.16%
[3]; instillation of eye drops, 8 mm wound, vs physiological saline
  promotion of wound healing: significant promotion of wound healing

## hyaluronic acid [reference compound]
[3]; 0.3% eye drop, 0 hr (baseline)
  Healing ratio (%): 0%
[3]; 0.3% eye drop, 12 hr
  Healing ratio (%): 13.98 ± 4.88%
[3]; 0.3% eye drop, 18 hr
  Healing ratio (%): 28.45 ± 3.37%
[3]; 0.3% eye drop, 24 hr
  Healing ratio (%): 60.78 ± 8.07%
[3]; 0.3% eye drop, 30 hr
  Healing ratio (%): 60.78 ± 8.07%
[3]; 0.3% eye drop, 36 hr
  Healing ratio (%): 71.62 ± 11.02%
[3]; 0.3% eye drop, 48 hr
  Healing ratio (%): 90.19 ± 9.51%
[3]; 0.3% eye drop, 54 hr
  Healing ratio (%): 95.35 ± 6.44%
[3]; 0.3% eye drop, 72 hr
  Healing ratio (%): 99.92 ± 0.22%

— patent US20060234945A1, “Ophthalmic therapeutic composition” (Nihon Tenganyaku Kenkyusho Co., LTD., priority 2002, published 2006)
